Assay results: patent US6620819B2, “Anticonvulsant derivatives useful in treating psychosis” (Ortho-McNeil Pharmaceutical, Inc., priority 1999, dated 2003)

How the values were obtained:
[1] = test system: behavioral agitation in dementia; conditions: some patients with dementia; cited from earlier work
[2] = test system: patients with dementia; test: retrospective chart review of open label add-on topiramate, dementia patients; format: in vivo, human; conditions: all three dementia inpatients; daily mean dose 210 mg, duration 11.7 weeks; added to existing pharmacotherapy, several on risperidone
Procedure: (§1) A retrospective analysis of patients treated in an open label manner with topiramate for dementia and/or behavioral and psychotic disturbances in dementia was performed.
(§2) The charts of 58 consecutive patients with diagnosed psychiatric disorders refractory to conventional mood stabilizers who were treated with topiramate were selected for retrospective review. Topiramate 25 mg BID was added to existing pharmacotherapy on an open label basis. It was titrated upward in 50 mg (25 mg bid) increments every seven days until improvement occurred or a total dosage of 400 mg per day was reached. Charts were retrospectively reviewed for the following data: demographic information, psychiatric diagnosis and duration of illness, general medical history, daily dose of topiramate and regimen, duration of topiramate therapy, reason for discontinuation of topiramate therapy, previous therapy, concurrent medications, adverse events and evaluation of response to topiramate.
(§3) Results were analyzed using descriptive statistics. When possible, results are expressed as means with standard deviation (SD). […] Improvement was investigator rated and included a qualitative assessment of changes in sleep, appetite, mood and concentration during therapy. Adverse events reported by the patients were recorded during therapy and assessed for their relationship to study therapy. […]

[3] = test system: patients with psychosis, not otherwise specified; test: retrospective chart review of open label add-on topiramate, psychosis patients; format: in vivo, human; conditions: both psychosis inpatients; daily mean dose 260 mg, duration 10.7 weeks; added to existing pharmacotherapy, several on risperidone
Procedure: as §1, §2, §3

[4] = test system: simple and complex partial seizures and secondarily generalized seizures; conditions: adjunctive therapy or monotherapy, clinical trials; cited from earlier work
[5] = test system: seizures in several rodent models of epilepsy; conditions: cited from earlier work
[6] = test system: kindled epilepsy; conditions: animal model of kindled epilepsy; cited from earlier work

Row | SMILES | control of behavioral agitation [1] | investigator rated response (Likert scale worse / no change / minimally improved / markedly improved) [2] | investigator rated response (Likert scale worse / no change / minimally improved / markedly improved) [3] | efficacy in treating simple and complex partial seizures and secondarily generalized seizures [4] | block of seizures [5] | block of seizures [6]
1 | NC(=O)N1c2ccccc2C=Cc2ccccc21 [carbamazepine] | efficacious |  |  |  |  | 
2 | CCCC(CCC)C(=O)O [divalproex sodium] | efficacious |  |  |  |  | 
3 | CC1(C)O[C@@H]2[C@@H](CO[C@@]3(COS(N)(=O)=O)OC(C)(C)O[C@@H]23)O1 [topiramate, 2,3:4,5-bis-O-(1-methylethylidene)-β-D-fructopyranose sulfamate] |  | marked or moderate improvement | marked or moderate improvement | effective | effectively block seizures | effectively block seizures
